Tests used:
pH of aqueous solution = assay type: physicochemical; settings: noted by the inventors
[1] = background / U.S. Pat. No. 3,562,273; cited from earlier work
[2] = double-blind, randomized comparative taste-test of oral alpha-lipoic acid solutions (throat irritation, overall liking); assay type: in vivo; settings: of seventeen subjects

Which “pH of the salt” value (pH of aqueous solution) does the source give for `NC(CO)(CO)CO.O=C(O)CCCCC1CCSS1` (stereo not shown) [TR-ALA, tris(hydroxymethyl) amino methane thioctate] here?
Its value is 6.5 to 7.5.

And the “pH in a 0.1M aqueous solution” value [1]?
The value was 6.5.

Which “pH in a 0.1M aqueous solution” value [1] does the source give for `NC(CO)(CO)CO` [trometamol, 2-amino-2-(hydroxymethyl)propane-1,3-diol] here?
The value was 10.4.

Which “number of subjects ranking the sample as the most irritating of the three samples” value [2] does the source give for `O=C(O)CCCC[C@@H]1CCSS1` [ALA, 5-[(3R)-dithiolan-3-yl]pentanoic acid] here?
Its value is “fourteen”.
